Assays:
Type in all cases: in vivo
Alfalfa [1] = test: Preemergence herbicidal activity, % control of plant growth; conditions: Medicago sativa, pre-emergence, 504 h, 16 lb/acre, about 3 weeks
Source text: (§1) By "preemergence" is meant that the compound is applied to the soil prior to emergence of the weed species sought to be controlled. This term, as used herein, also means the application of the herbicidal compounds falling within the scope of this disclosure to areas wherein useful or desirable plants are either growing or have been sown, but where the undesirable plants sought to be controlled have not as yet emerged.
(§2) In using the compound, seeds of the types of plants set forth in Table II were sown in fresh soil. In the preemergence test the soil was sprayed with a solution of the test compound immediately after the seeds were planted, and before any noticeable growth developed. The solution was about a 2 percent by weight solution of the compound in acetone and/or alcohol. The compound was applied at the rate of 16 pounds per acre of soil surface.
(§3) Approximately 3 weeks after spray application, the herbicidal activity of the compound was determined by visual observation of the treated area in comparison with untreated control areas. These observations are reported below in Table II wherein the average activity rating is reported as the percent control of plant growth.
(§4) *Preemergence test: compound applied at rate of 16 lb/acre

Barnyard Grass [2] = test: as above; conditions: Echinochloa crus-galli, pre-emergence, 504 h; barnyard grass; 16 lb/acre; about 3 weeks
Source text: as §1, §2, §3, §4

Cheatgrass [3] = test: as above; conditions: Bromus tectorum, pre-emergence, 504 h, 16 lb/acre, about 3 weeks
Source text: as §1, §2, §3, §4

Chickweed [4] = test: as above; conditions: pre-emergence, 504 h, 16 lb/acre, about 3 weeks
Source text: as §1, §2, §3, §4

Corn [5] = test: as above; conditions: Zea mays, pre-emergence, 504 h, 16 lb/acre, about 3 weeks
Source text: as §1, §2, §3, §4

Crabgrass [6] = test: as above; conditions: Digitaria sanguinalis, pre-emergence, 504 h, 16 lb/acre, about 3 weeks
Source text: as §1, §2, §3, §4

Cucumber [7] = test: as above; conditions: Cucumis sativus, pre-emergence, 504 h, 16 lb/acre, about 3 weeks
Source text: as §1, §2, §3, §4

Curled Dock [8] = test: as above; conditions: pre-emergence, 504 h, 16 lb/acre, about 3 weeks
Source text: as §1, §2, §3, §4

Foxtail [9] = test: as above; conditions: Setaria, pre-emergence, 504 h, 16 lb/acre, about 3 weeks
Source text: as §1, §2, §3, §4

Johnsongrass [10] = test: as above; conditions: Sorghum halepense, pre-emergence, 504 h, 16 lb/acre, about 3 weeks
Source text: as §1, §2, §3, §4

Lambsquarters [11] = test: as above; conditions: Chenopodium album, pre-emergence, 504 h, 16 lb/acre, about 3 weeks
Source text: as §1, §2, §3, §4

Nutgrass [12] = test: as above; conditions: pre-emergence, 504 h, 16 lb/acre, about 3 weeks
Source text: as §1, §2, §3, §4

Pigweed [13] = test: as above; conditions: Amaranthus retroflexus, pre-emergence, 504 h, 16 lb/acre, about 3 weeks
Source text: as §1, §2, §3, §4

Snapbeans [14] = test: as above; conditions: pre-emergence, 504 h, 16 lb/acre, about 3 weeks
Source text: as §1, §2, §3, §4

Velvetleaf [15] = test: as above; conditions: Abutilon theophrasti, pre-emergence, 504 h, 16 lb/acre, about 3 weeks
Source text: as §1, §2, §3, §4

Wild Oats [16] = test: as above; conditions: Avena fatua, pre-emergence, 504 h, 16 lb/acre, about 3 weeks
Source text: as §1, §2, §3, §4

Yellow Rocket [17] = test: as above; conditions: pre-emergence, 504 h, 16 lb/acre, about 3 weeks
Source text: as §1, §2, §3, §4

Alfalfa [18] = test: Postemergence herbicidal activity, % control of plant growth; conditions: Medicago sativa, post-emergence, 264 h, 8 lb/acre, about 11 days
Source text: (§5) By the term "postemergence" is meant that the compound is applied to the plant sought to be controlled after it has emerged from the soil surface. This term is also used to describe the application of herbicidally active compounds to soil surface in and around growing plants sought to be controlled for purposes of effecting root absorption by the undesirable plant species.
(§6) In the postemergence test the soil and developing plants were sprayed approximately 2 weeks after the seeds were sown. The compound was applied at the rate of 8 pounds per acre from about a 2 percent by weight solution of the test compound in acetone and/or alcohol. The postemergence herbicidal activity was measured in the same way as the preemergence activity; i.e. visual observation approximately 11 days after spraying, and expressed as the percent control of plant growth.
(§7) **Postemergence test: compound applied at rate of 8 lb/acre

Barnyard Grass [19] = test: as above; conditions: Echinochloa crus-galli, post-emergence, 264 h, 8 lb/acre, about 11 days
Source text: as §5, §6, §7

Cheatgrass [20] = test: as above; conditions: Bromus tectorum, post-emergence, 264 h, 8 lb/acre, about 11 days
Source text: as §5, §6, §7

Chickweed [21] = test: as above; conditions: post-emergence, 264 h, 8 lb/acre, about 11 days
Source text: as §5, §6, §7

Corn [22] = test: as above; conditions: Zea mays, post-emergence, 264 h, 8 lb/acre, about 11 days
Source text: as §5, §6, §7

Crabgrass [23] = test: as above; conditions: Digitaria sanguinalis, post-emergence, 264 h, 8 lb/acre, about 11 days
Source text: as §5, §6, §7

Cucumber [24] = test: as above; conditions: Cucumis sativus, post-emergence, 264 h, 8 lb/acre, about 11 days
Source text: as §5, §6, §7

Curled Dock [25] = test: as above; conditions: post-emergence, 264 h, 8 lb/acre, about 11 days
Source text: as §5, §6, §7

Foxtail [26] = test: as above; conditions: Setaria, post-emergence, 264 h, 8 lb/acre, about 11 days
Source text: as §5, §6, §7

Johnsongrass [27] = test: as above; conditions: Sorghum halepense, post-emergence, 264 h, 8 lb/acre, about 11 days
Source text: as §5, §6, §7

Lambsquarters [28] = test: as above; conditions: Chenopodium album, post-emergence, 264 h, 8 lb/acre, about 11 days
Source text: as §5, §6, §7

Nutgrass [29] = test: as above; conditions: post-emergence, 264 h, 8 lb/acre, about 11 days
Source text: as §5, §6, §7

Pigweed [30] = test: as above; conditions: Amaranthus retroflexus, post-emergence, 264 h, 8 lb/acre, about 11 days
Source text: as §5, §6, §7

Snapbeans [31] = test: as above; conditions: post-emergence, 264 h, 8 lb/acre, about 11 days
Source text: as §5, §6, §7

Velvetleaf [32] = test: as above; conditions: Abutilon theophrasti, post-emergence, 264 h, 8 lb/acre, about 11 days
Source text: as §5, §6, §7

Wild Oats [33] = test: as above; conditions: Avena fatua, post-emergence, 264 h, 8 lb/acre, about 11 days
Source text: as §5, §6, §7

Yellow Rocket [34] = test: as above; conditions: post-emergence, 264 h, 8 lb/acre, about 11 days
Source text: as §5, §6, §7

`CCCCC(CC)Cn1c(=O)[nH]c2cccnc2c1=O` (stereo not shown) [3-(2-ethylhexyl)pyrido[3,2-d]pyrimidine-2,4(1H,3H)-dione] showed a pest or weed control at 17933.6 g/ha (Alfalfa [1]) of 0%, a pest or weed control at 17933.6 g/ha (Barnyard Grass [2]) of 0% and a pest or weed control at 17933.6 g/ha (Cheatgrass [3]) of 0%. The pest or weed control at 17933.6 g/ha (Chickweed [4]) was 70%, the plant injury at 17933.6 g/ha (Corn [5]) was 0% and the pest or weed control at 17933.6 g/ha (Crabgrass [6]) was 10%. It also gave a pest or weed control at 17933.6 g/ha (Cucumber [7]) of 10%, a pest or weed control at 17933.6 g/ha (Curled Dock [8]) of 0% and a pest or weed control at 17933.6 g/ha (Foxtail [9]) of 0%. It also gave a pest or weed control at 17933.6 g/ha (Johnsongrass [10]) of 0%, a pest or weed control at 17933.6 g/ha (Lambsquarters [11]) of 30% and a pest or weed control at 17933.6 g/ha (Nutgrass [12]) of 0%. For the same compound, the pest or weed control at 17933.6 g/ha (Pigweed [13]) was 0%, the pest or weed control at 17933.6 g/ha (Snapbeans [14]) was 0% and the pest or weed control at 17933.6 g/ha (Velvetleaf [15]) was 0%. For the same compound, the pest or weed control at 17933.6 g/ha (Wild Oats [16]) was 0%, the pest or weed control at 17933.6 g/ha (Yellow Rocket [17]) was 90% and the pest or weed control at 8966.8 g/ha (Alfalfa [18]) was 0%. It also gave a pest or weed control at 8966.8 g/ha (Barnyard Grass [19]) of 0%, a pest or weed control at 8966.8 g/ha (Cheatgrass [20]) of 0% and a pest or weed control at 8966.8 g/ha (Chickweed [21]) of 50%. It also gave a plant injury at 8966.8 g/ha (Corn [22]) of 0%, a pest or weed control at 8966.8 g/ha (Crabgrass [23]) of 10% and a pest or weed control at 8966.8 g/ha (Cucumber [24]) of 20%. For the same compound, the pest or weed control at 8966.8 g/ha (Curled Dock [25]) was 10%, the pest or weed control at 8966.8 g/ha (Foxtail [26]) was 0% and the pest or weed control at 8966.8 g/ha (Johnsongrass [27]) was 0%. It also gave a pest or weed control at 8966.8 g/ha (Lambsquarters [28]) of 100%, a pest or weed control at 8966.8 g/ha (Nutgrass [29]) of 0% and a pest or weed control at 8966.8 g/ha (Pigweed [30]) of 100%. The pest or weed control at 8966.8 g/ha (Snapbeans [31]) was 0%, the pest or weed control at 8966.8 g/ha (Velvetleaf [32]) was 0% and the pest or weed control at 8966.8 g/ha (Wild Oats [33]) was 0%. It also gave a pest or weed control at 8966.8 g/ha (Yellow Rocket [34]) of 90%.

— patent publication US3960877A, “N-monosubstituted-2,3-pyridinedicarboxamides, and related compounds” (priority 1974, dated 1976)
